# Assay results published in patent US11673853B2, “Small molecule AMPK activators” (University of Pittsburgh—Of the Commonwealth System of …, priority 2016, dated 2023).
# What was measured:
# pAMPK = pAMPK immunoblotting in Beas2B cells (Table 1); format: cell-based; conditions: Homo sapiens, BEAS-2B, DMEM media without glucose, compounds 18 h
# Description: Additional compounds in Table 1 were or can be prepared according to the above-described Examples. Human bronchial epithelial cells (Beas2B) were seeded in 6-well plates for 18 h. Cells were then exposed to DMEM media without glucose and compounds at various concentrations for an additional 18 h before being collected for immunoblotting.
# phospho-AMPK = phospho-AMPK / p-ACC immunoblotting in Beas2B cells (in vitro studies); format: cell-based, Human
# Description: FIG. 3. (A) Beas2b cells were cultured in DMEM 2% media with glucose for 24 h before switching to glucose-free media. Cells were then exposed to either DMSO or Compound 1 (2 μM) in a time course before being collected for immunoblotting. (B) Beas2B cells were exposed to Compound 1 for 18 h at various doses before being collected for immunoblotting. (C) Beas2b cells were cultured in DMEM 2% media with glucose for 24 h before switching to glucose-free media. Cells were then exposed to AICAR at various doses with or without Compound 1 co-treatment. After 18 h, cells were collected before being assayed by immunoblotting.
# FIG. 4. (A) Beas2b cells were cultured in DMEM 2% media with glucose for 24 h before switching to glucose-free media. Cells were then exposed to Compound 12 in a dose dependent manner for 18 h before being collected for immunoblotting. (B) Beas2b cells were cultured in DMEM 2% media with glucose for 24 h before Compound 12 treatment in a dose dependent manner. After 18 h, cells were then collected for immunoblotting. (C) Beas2b cells were cultured in DMEM 2% media with glucose for 24 h before switching to glucose-free media. Cells were then exposed to Compound 12 for 18 h before being collected for mRNA analysis. (D) 50K PBMC cells were cultured in 96 well plates before being exposed to Compound 12 for 4 h. Cells were then treated with LPS (10 ng/ml) for additional 2 h. Media were then collected and IL-1b concentration was determined by ELISA.
# FIG. 9. (A) Beas2b cells were cultured in DMEM 2% media with glucose for 24 h before switching to glucose-free media. Cells were then exposed to Compound 23 or metformin in a dose dependent manner for 18 h before being collected for immunoblotting. (B) Beas2b cells were cultured in DMEM 2% media with glucose for 24 h before switching to glucose-free media and treated with Compound 12 or Compound 23 in a dose dependent manner. After 6 h, cells were then collected for immunoblotting. (C) Beas2b cells were cultured in DMEM 2% media with glucose for 24 h before switching to glucose-free media and treated with Compound 12 or Compound 23 in a dose dependent manner. After 18 h, cells were then collected for immunoblotting. (D) Beas2b cells were transfected with AMPK phospho mimic T172D or phospho dead T172A mutant for 24 h. Cells were then switched to glucose-free media and exposed to Compound 23 in a dose or time dependent manner before being collected for immunoblotting. (E) Beas2b cells were transfected with control siRNA or Fbxo48 siRNA for 48 h before switching to glucose-free media. Cells were then exposed to Compound 23 in a dose dependent manner before being collected for immunoblotting. (F) Compound 23 chemical structure.
# Compound 1 was studied in in vitro assays using Beas2B cells. […]
# Compound 23 was tested in in vitro studies using Beas2B cells and compared with metformin.
# Diet-induced obese mice = Diet-induced obese mice study, 14 days dosing; format: in vivo; conditions: once daily for 14 days; BC1618 8 or 40 mg/kg/d
# Description: FIG. 12. Diet-induced obese mice were fed a high-fat diet for 19 weeks and then injected with vehicle or drug once daily for 14 days. Daily body weights (in grams) of the mice are shown.
# Diet-induced obese mice arrived from Jackson Labs and recovered two weeks in satellite housing before study. Mice were 25 weeks old and fed a high-fat diet for 19 weeks at the time of study. Body weight, fat and lean mass were measured and mice were grouped in order to match body weights at ˜46.5 g average per group prior to study. Following the acute dosing trial, mice were injected with vehicle or drug 1× daily between noon and 2 pm for 14 days (BC1618-L (low dose)=8 mg/kg/d, BC1618-H (high dose)=40 mg/kg/d). Body weight was recorded daily (FIGS. 12-15). FIG. 12 and FIG. 13 show body weight in grams and FIG. 14 and FIG. 15 show body weight as a percentage of body weight on day 0 (DO).
# FIGS. 16-19 show the change (A) in body weight (BW) from day 0 to day 14 expressed as change in grams (FIG. 16 and FIG. 17) or as percent change from day 0 (FIG. 18 and FIG. 19).
# Body composition was measured at DO in the body weight matched animals and again at day 14 (D14). Data in FIGS. 20-23 represent the change in fat mass from DO to D14 expressed as grams (FIG. 20 and FIG. 21) or as percent change (FIG. 22 and FIG. 23).
# Data in FIGS. 24-27 represent the change in lean mass from DO to D14 expressed as grams (FIG. 24 and FIG. 25) and as percent change (FIG. 26 and FIG. 27). Overall there appears to be a modest effect of vehicle and drug to reduce lean mass over 14 days, but no differences between groups. Changes in BW over 14 days therefore reflect changes in fat mass and not lean mass.
# [1] = system: High-fat diet fed C57BL6J mice; assay: Acute oral dosing study in high-fat diet fed mice; format: in vivo
IC50 (pAMPK) [µg/mL],SMILES,also measured
1 to 10,OC(COc1ccccc1)CN(Cc1ccccc1)Cc1ccccc1 (centres unmarked) [Compound 16],–
> 10,OC(CCc1ccccc1)CN(Cc1ccccc1)Cc1ccccc1 (centres unmarked) [Compound 25],–
1 to 10,OC(CN(Cc1ccccc1)Cc1ccccc1)c1ccc2ccccc2c1 (centres unmarked) [Compound 24],–
1 to 10,OC(CNCC(c1ccccc1)c1ccccc1)COc1ccccc1 (centres unmarked) [Compound 14],–
> 10,OC(CNc1ccc(C(F)(F)F)cc1)CNc1ccc(C(F)(F)F)cc1 [Compound 27],–
1 to 10,COc1ccc(OCC(O)CNCC(c2ccccc2)c2ccccc2)cc1 (centres unmarked) [Compound 17],–
> 10,OC(CNCC(c1ccccc1)c1ccccc1)COc1ccc(C2CCCCC2)cc1 (centres unmarked) [Compound 20],–
> 10,OC(CNC1c2ccccc2Oc2ccccc21)COc1ccccc1 (centres unmarked) [Compound 15],–
> 10,OC(COc1ccc(C(F)(F)F)cc1)CN1CCc2ccccc2C1 (centres unmarked) [Compound 26],–
1 to 10,OC(COc1ccc(C2CCCCC2)cc1)CN(Cc1ccccc1)Cc1ccccc1 (centres unmarked) [Compound 19],–
> 10,OC(CNc1ccc(F)cc1)COc1ccc(F)cc1 (centres unmarked) [Compound 28],–
> 10,OC(COc1ccc(-c2ccccn2)cc1)CN(Cc1ccccc1)Cc1ccccc1 (centres unmarked) [Compound 22],–
1 to 10,OC(CNC(c1ccccc1)c1ccccc1)COc1ccc(C2CCCCC2)cc1 (centres unmarked) [Compound 18],–
> 10,O=C(c1ccccc1)c1ccc(OCC(O)CN(Cc2ccccc2)Cc2ccccc2)cc1 (centres unmarked) [Compound 21],–

# Further lines, the compound ahead of its results:
SMILES,IC50 (pAMPK) [µg/mL],also measured
OC(COc1ccc2ccccc2c1)CN(Cc1ccccc1)Cc1ccccc1 (centres unmarked) [Compound 7],1 to 10,–
OC(COc1ccc(OCC(O)CN(Cc2ccccc2)Cc2ccccc2)cc1)CN(Cc1ccccc1)Cc1ccccc1 (centres unmarked) [Compound 1],1 to 10,"concentration leading to a drastic increase in phospho-AMPK levels (phospho-AMPK; Beas2B cells, 18 h, various doses): 2 µM; phospho-AMPK levels compared to vehicle control (phospho-AMPK; Beas2b, glucose-free media, 2 μM, time course, within 2 h): drastically increased; phospho-AMPK and downstream p-ACC levels versus AICAR (phospho-AMPK; Compound 1 alone at 4 μM, AICAR at 0.25 mM): well exceeding AICAR treatment at 0.25 mM; effect of co-treatment with AICAR on phospho-AMPK (phospho-AMPK; Compound 1 at 4 μM with AICAR at various doses, 18 h): completely saturated AICAR effects"
Cc1ccccc1OCC(O)CN(Cc1ccccc1)Cc1ccccc1 (centres unmarked) [Compound 9],1 to 10,–
OC(CNCc1ccccc1)COc1ccc(OCC(O)CNCc2ccccc2)cc1 (centres unmarked) [Compound 8],> 10,–
"CN(C)C(=N)N=C(N)N [metformin, reference compound]",–,"concentration range increasing pAMPK phosphorylation and downstream substrate ACC phosphorylation (phospho-AMPK; Beas2b, glucose-free media, 18 h): millimolar"
"NC(=O)c1ncn([C@@H]2O[C@H](CO)[C@@H](O)[C@H]2O)c1N [AICAR, reference compound]",–,"concentration at which phospho-AMPK levels increased (phospho-AMPK; Beas2b, glucose-free media, 18 h, dose dependent): ~0.05 mM; body weight loss (daily body weight) (Diet-induced obese mice): effect of AICAR and BC1618 on body weight loss; change in body weight from day 0 to day 14 (Diet-induced obese mice): an effect due to AICAR or BC1618; change in fat mass from D0 to D14 (Diet-induced obese mice): apparent additive effect; glucose tolerance (intraperitoneal glucose tolerance test) ([1]; 1 g/kg body weight glucose, data not shown): no difference in glucose tolerance; body weight at the time of study ([1]; two oral doses (AICAR 200 mg/kg, BC1618 20 mg/kg)): no differences in body weight; reduction of fasting plasma glucose compared to vehicle ([1]; two oral doses (AICAR 200 mg/kg, BC1618 20 mg/kg), 2 h after second dose, P=0.08): 10%"
COc1ccc(OCC(O)CN(Cc2ccccc2)Cc2ccccc2)cc1 (centres unmarked) [Compound 6],1 to 10,–
OC(CNC(c1ccccc1)c1ccccc1)COc1ccccc1 (centres unmarked) [Compound 13],1 to 10,–
Cc1ccccc1CNCc1ccc(OCC(O)CN(C)Cc2ccccc2)cc1 (centres unmarked) [Compound 4],> 10,–
CC1CN(Cc2ccc(OCC(O)CN(C)Cc3ccccc3)cc2)C1 (centres unmarked) [Compound 10],> 10,–
OC(CNC(c1ccccc1)c1ccccc1)COc1ccc(F)cc1 (centres unmarked) [Compound 11],1 to 10,–
COCCN(Cc1ccc(OCC(O)CN(C)Cc2ccccc2)cc1)C(C)C (centres unmarked) [Compound 2],> 10,–
Cc1ccc(OCC(O)CN(Cc2ccccc2)Cc2ccccc2)cc1 (centres unmarked) [Compound 5],1 to 10,–
CN(Cc1ccccc1)CC(O)COc1ccc(CNC2CC2)cc1 (centres unmarked) [Compound 3],> 10,–
